According to publication PMC12171319, “3‐Oxabicyclo[3.1.1]heptane as an Isostere of meta‐Benzene” (Angewandte Chemie (International Ed. in English), 2025):
≈ marks a conversion by molar mass, not a printed value. Where two headings read alike, the source gives them in different places.

How the values were obtained:
[1] = Table S5, 2nd batch
[2] = tested on: Hedgehog signaling pathway; details: Mus musculus
in vitro = details: human; for Papp A→B at 90 min, 10 µM: Caco-2, pH 7.4, Papp (AB); for Papp B→A at 90 min, 10 µM: Caco-2, pH 7.4, Papp (BA)
[3] = Metabolic stability in human liver microsomes; assay type: in vitro ADME; details: both sexes, human
Method: 9. Metabolic Stability in Human Liver Microsomes
The objective of this study was to determine the metabolic stability of 3 test articles (EN300- […]
in human liver microsomes at five-time points over 40 minutes using HPLC-MS. Metabolic stability is defined as the percentage of parent compound lost over time in the presence of a metabolically active test system.
Potassium phosphate monobasic (Bio-Basic, Canada; Lot #N9016010)
Potassium phosphate dibasic (Bio-Basic, Canada; Lot #MA7100050) […]
Glucose-6-phosphate dehydrogenase from baker's yeast, type XV (Sigma-Aldrich, USA; Cat […]
D-Glucose-6-phosphate sodium salt (Sigma-Aldrich, USA; Cat #G7879-1G)
NADPH tetrasodium salt (BLD Pharmatech Ltd., Cat #BD116582)
Verapamil hydrochloride (Sigma Aldrich, USA; Cat #V4629)
Niclosamide (Sigma-Aldrich, USA; Cat #N3510)
DMSO stock solutions of the tested compounds 20 mM
Gradient HPLC system (Shimadzu)
Triple quadrupole mass-detector API 3000 with TurboIonSpray Ion Source (AB Sciex, Canada) […]
Multichannel pipettors 1-30 µL, 2-125 µL, 30-850 µL (Thermo Scientific) […]
All measurements were performed using the Shimadzu HPLC system including vacuum degasser, gradient pumps, reverse phase HPLC column, column oven, and autosampler. Mass spectrometric analysis was performed using an API 3000 mass spectrometer from Applied Biosystems/MDS Sciex (AB Sciex) with Turbo V ion source and TurboIonspray interface. The […]
and system control were performed using Analyst 1.6.3 software from AB Sciex.
Microsomal incubations were carried out in 96-well plates in 5 aliquots of 30 μL each (one for each time point). Liver microsomal incubation medium comprised of phosphate buffer (100 mM, pH 7.4), MgCl2 (3.3 mM), NADPН (3 mM), glucose-6-phosphate (5.3 mM), glucose-6-phosphate dehydrogenase (0.67 units/mL) with 0.42 mg of liver microsomal protein per mL. In the control reactions, the NADPH-cofactor system was substituted with phosphate buffer. Test compounds […]
100 rpm. Five-time points over 40 minutes were analyzed. The reactions were stopped by adding 5 volumes of acetonitrile with internal standard to incubation aliquots, followed by protein sedimentation by centrifuging at 5500 rpm for 5 min. Each reaction was performed in duplicates.
Supernatants were analyzed using the HPLC system coupled with a tandem mass spectrometer.
The elimination constant (kel), half-life (t1/2), and intrinsic clearance (Clint) were determined in a plot of […] versus time, using linear regression analysis:1
1 In order to indicate the quality of the linear regression analysis, the R2 (determination coefficient) values are provided.
In some cases, the last time point is excluded from the calculations to ensure acceptable logarithmic linearity of decay.

[4] = Kinetic solubility in phosphate-buffered saline, pH 7.4; assay type: physicochemical; details: 25 °C, pH 7.4, aqueous buffer, kinetic from dmso stock; for solubility at 2 h: PBS solubility
Method: page 239: 7. […] The data […] analysis software. […] page 240: Methods Kinetic solubility assay was performed according to Enamine's aqueous solubility SOP. Briefly, […] theoretical concentration of 400 μM in duplicates in phosphate-buffered saline pH 7.4 […] The experimental compound dilutions in PBS were further allowed to equilibrate at 25 °C on a thermostatic shaker for two hours and then filtered through HTS filter plates using a vacuum manifold. The filtrates of test […] prepared to theoretical concentrations of 0 μM (blank), 10 μM, 25 μM, 50 μM, 100 μM, and 200 […] Ondansetron was used as a reference compound to control proper assay performance. 200 μL of each sample was transferred to a 96-well plate and measured in the 230-550 nm range with a 5 nm step. The concentrations of compounds in PBS filtrate are calculated using a dedicated Microsoft Excel calculation script. Proper absorbance wavelengths for calculations are selected for each compound manually based on absorbance maximums (absolute absorbance unit values for the minimum and maximum concentration points within the 0 - 3 OD range). Each final dataset is visually evaluated by the operator, and goodness of fit (R2) is calculated for each calibration curve. […] close to the upper limit of the range may have higher actual solubility (e.g. 5'-deoxy-5- fluorouridine). The calibration curves are shown in Appendix*. […] Compound ID PBS solubility, pH 7.4, μM SE […] Ondansetron 128 126 127** 1.1 EN300-7362818 6 6 6 0.2 (Sonidegib) BCHep-Sonidegib (50) 5 3 4 0.9 Table S3. 2nd batch PBS solubility, pH 7.4, μM Compound ID SE […] Ondansetron 124 124 124** 0.1 EN300-45381956 (51) 34 34 34 0.2 *Goodness of fit (R2) in all titration curves as well as the variations between repeat measurements indicates a high quality of the experimental data in the current batch of test articles. **Ondansetron solubility data are consistent with those previously obtained. […]

SMILES: CC1CN(c2ccc(NC(=O)C34COCC(c5ccc(OC(F)(F)F)cc5)(C3)C4)cn2)CC(C)O1 (stereo not shown) [Compound 51]
- logD at 1 h (physchem; pH 7.4, LogD, pH 7.4): ≥ 4.5
- logD at 1 h (physchem; pH 7.4, LogD, pH 7.4 (overall of 3 incubations)): ≥ 4.5
- logD at 1 h (physchem; pH 7.4, logD (7.4): experimental distribution coefficient in n-octanol/phosphate-buffered saline, pH 7.4): ≥ 4
- D ([1]; incubation 1): 7.16E+04
- D ([1]; incubation 2): 6.24E+04
- D ([1]; incubation 3): 6.33E+04
- IC50 ([2]; NIH3T3, read-out: IC50 (HH signal): inhibition of the Hedgehog signaling pathway, Gli reporter NIH3T3 cell line): 96 nM
- IC50 ([2]; NIH3T3, read-out: pIC50, Hedgehog signaling pathway, experiment with EN300-45381956 (51) (converted), calculated from IC50): 100 nM
- efflux ratio at 90 min, 10 µM (in vitro; Caco-2, pH 7.4): 1.5
- Papp A→B at 90 min, 10 µM (in vitro; Mean): 5.4 ×10⁻⁶ cm/s
- Papp A→B at 90 min, 10 µM (in vitro; replicate 1): 6.3 ×10⁻⁶ cm/s
- Papp A→B at 90 min, 10 µM (in vitro; replicate 2): 4.5 ×10⁻⁶ cm/s
- Papp B→A at 90 min, 10 µM (in vitro; Mean): 8 ×10⁻⁶ cm/s
- Papp B→A at 90 min, 10 µM (in vitro; replicate 1): 7.3 ×10⁻⁶ cm/s
- Papp B→A at 90 min, 10 µM (in vitro; replicate 2): 8.7 ×10⁻⁶ cm/s
- recovery at 90 min, 10 µM (in vitro; Caco-2, pH 7.4, Recovery A-B in presence of Verapamil, Mean): 51%
- recovery at 90 min, 10 µM (in vitro; Caco-2, pH 7.4, Recovery A-B in presence of Verapamil, replicate 1): 53%
- recovery at 90 min, 10 µM (in vitro; Caco-2, pH 7.4, Recovery A-B in presence of Verapamil, replicate 2): 49%
- recovery at 90 min, 10 µM (in vitro; Caco-2, pH 7.4, Recovery A-B, Mean): 43%
- recovery at 90 min, 10 µM (in vitro; Caco-2, pH 7.4, Recovery A-B, replicate 1): 44%
- recovery at 90 min, 10 µM (in vitro; Caco-2, pH 7.4, Recovery A-B, replicate 2): 43%
- recovery at 90 min, 10 µM (in vitro; Caco-2, pH 7.4, Recovery B-A in presence of Verapamil, Mean): 77%
- recovery at 90 min, 10 µM (in vitro; Caco-2, pH 7.4, Recovery B-A in presence of Verapamil, replicate 1): 69%
- recovery at 90 min, 10 µM (in vitro; Caco-2, pH 7.4, Recovery B-A in presence of Verapamil, replicate 2): 86%
- recovery at 90 min, 10 µM (in vitro; Caco-2, pH 7.4, Recovery B-A, Mean): 70%
- recovery at 90 min, 10 µM (in vitro; Caco-2, pH 7.4, Recovery B-A, replicate 1): 71%
- recovery at 90 min, 10 µM (in vitro; Caco-2, pH 7.4, Recovery B-A, replicate 2): 69%
- remaining at 40 min, 2 µM ([3]; human liver microsomes, pH 7.4, Table S7, 2nd batch, no NADPH, read-out: % Remaining without cofactor, Mean of 2): 104%
- half-life at 2 μM ([3]; human liver microsomes, pH 7.4, human liver microsomes, read-out: t1/2: experimental half-time of a metabolic decomposition): 1.02 h
- k el at 2 µM ([3]; human liver microsomes, pH 7.4, Table S7, 2nd batch): 0.000183 s⁻¹
- half-life at 2 μM ([3]; human liver microsomes, pH 7.4, Table S7, 2nd batch, read-out: t1/2): 1.01 h
- microsomal CLint at 2 μM ([3]; human liver microsomes, pH 7.4, read-out: CLint: experimental metabolic stability in human liver microsomes): 28 µL/min/mg
- remaining at 7 min, 2 µM ([3]; liver microsomes, pH 7.4, Table S7, 2nd batch, 7 min, 2 µM): 96%
- remaining at […], 2 µM ([3]; liver microsomes, pH 7.4, Table S7, 2nd batch, 15 min, 2 µM): 89%
- remaining at 25 min, 2 µM ([3]; liver microsomes, pH 7.4, Table S7, 2nd batch, 25 min, 2 µM): 77%
- remaining at 40 min, 2 µM ([3]; liver microsomes, pH 7.4, Table S7, 2nd batch, 2 µM, read-out: % Remaining, Mean of 2): 64%
- solubility kinetic at 2 h [4]: 34 µM (≈ 16.7 µg/mL)
- solubility at 2 h ([4]; pH 7.4, Incubation 1): 34 µM (≈ 16.7 µg/mL)
- solubility at 2 h ([4]; pH 7.4, Incubation 2): 34 µM (≈ 16.7 µg/mL)
- solubility at 2 h ([4]; pH 7.4, Mean): 34 µM (≈ 16.7 µg/mL)
